Laboratory results taken from patent US10573426B2, “Fluorinated nitriles as dielectric gases” (3M INNOVATIVE PROPERTIES COMPANY, priority 2012, dated 2020).

How the values were obtained:
rats = test: 4 hour inhalation LC50 in rats; assay type: in vivo
Method: (§1) For example, heptafluoroisobutyronitrile and 2,3,3,3-tetrafluoro-2-(trifluoromethoxy) propanenitrile have 4 hour inhalation lethal concentration at 50% (“LC-50”, defined as the dose required to produce lethality in half the members of a tested population after a specified test duration) (in rats) values of about 15,000 ppm. […] The nitriles of the present disclosure achieve these lower toxicities without the addition of additives such as nitrite esters as in U.S. Pat. No. 4,547,316.

6 hour inhalation LC50 = assay type: in vivo; conditions: species not given
Method: as §1

Compound	4 hour inhalation lethal concentration at 50% (LC-50) (rats)	6 hour inhalation LC50 (6 hour inhalation LC50) [ppm]
N#CC(F)(OC(F)(F)F)C(F)(F)F (centres unmarked) [2,3,3,3-tetrafluoro-2-(trifluoromethoxy)propanenitrile]	about 15,000 ppm	
N#CC(F)(F)C(F)(F)C(F)(F)F [CF3CF2CF2CN]	less than 6,000 ppm	
N#CC(F)(F)C(F)(F)F [CF3CF2CN]	2731 ppm	
N#CC(F)(F)F [CF3CN]		240
N#CC(F)(C(F)(F)F)C(F)(F)F [heptafluoroisobutyronitrile, Heptafluoroisobutyronitrile]	about 15,000 ppm	
